From DBAASP
≈ marks a conversion by molar mass, not a printed value. Where “and” joins values, the source holds several entries; their conditions need not be identical. Equal entries are not always repeated.

Legend:
Experiment in all cases: ≥ marks a high value that may be exact or a test limit, other limits are often not marked, values filed in µg/mL are converted to µM
[1] = system: Pseudomonas aeruginosa ATCC 13388
[2] = system: Salmonella enterica subsp. enterica serovar Typhimurium ATCC 14028
[3] = system: Escherichia coli ATCC 11219
[4] = system: Staphylococcus aureus ATCC 6538
[5] = system: Klebsiella pneumoniae ATCC 10031
[6] = system: Staphylococcus aureus ATCC 43300
[7] = system: Salmonella enterica subsp. enterica serovar Enteritidis ATCC 13076
[8] = system: Listeria monocytogenes ATCC 19115
[9] = system: Staphylococcus aureus ATCC BAA-39
[10] = system: Staphylococcus aureus ATCC 25923
[11] = system: Escherichia coli ATCC 25922
[12] = system: Klebsiella pneumoniae ATCC 13883
[13] = system: Pseudomonas syringae pv. syringae DSM 10604
[14] = system: Clavibacter michiganensis subsp. michiganensis DSM 46294
[15] = system: Alternaria alternata
[16] = system: Botrytis cinerea
[17] = system: Pseudomonas corrugata DSM 7228
[18] = system: Pectobacterium carotovorum subsp. carotovorum DSM 30168
[19] = system: Cladosporium herbarum
[20] = system: Xanthomonas vesicatoria DSM 50861
[21] = system: Pseudomonas syringae pv. tomato DC3000
[22] = system: Pseudomonas putida GPp104
[23] = system: Escherichia coli JM109
[24] = system: Cupriavidus necator H16
[25] = system: Escherichia coli BL21(DE3)
[26] = system: Pseudomonas aeruginosa ATCC 9027
[27] = system: Bacillus cereus ATCC 11778
[28] = system: Escherichia coli ATCC 35218
[29] = system: Bacillus megaterium
[30] = system: Staphylococcus aureus
[31] = system: Xanthomonas axonopodis pv. glycines ISBF 327

CC[C@H](C)[C@H](NC(=O)CN)C(=O)N[C@@H](Cc1cnc[nH]1)C(=O)N[C@@H](CC(=O)O)C(=O)N[C@H](C(=O)N[C@@H](C)C(=O)N[C@@H](CCCCN)C(=O)N[C@@H](Cc1ccc(O)cc1)C(=O)NCC(=O)N[C@@H](CCCCN)C(=O)N1CCC[C@H]1C(=O)N[C@@H](CO)C(N)=O)[C@@H](C)CC [GIHDIAKYGKPS]
MIC [1]: ≥ 50 µM | MIC [2]: > 50 µM | MIC [3]: ≥ 50 µM | MIC [4]: 5 µM (≈ 6.42 µg/mL) | MIC [5]: 20 µM (≈ 25.7 µg/mL)

CC[C@H](C)[C@H](NC(=O)CNC(=O)[C@@H](N)Cc1c[nH]c2ccccc12)C(=O)N[C@@H](CCCN=C(N)N)C(=O)N[C@@H](CCCN=C(N)N)C(=O)N[C@H](C(=O)N[C@@H](CC(C)C)C(=O)N[C@@H](CCCCN)C(=O)N[C@@H](Cc1ccc(O)cc1)C(=O)NCC(=O)N[C@@H](CCCCN)C(=O)N[C@@H](CCCN=C(N)N)C(=O)N[C@@H](CO)C(=O)O)[C@@H](C)CC [WGIRRILKYGKRS]
MIC [1]: 4 µM (≈ 6.53 µg/mL) | MIC [2]: 10 µM (≈ 16.3 µg/mL) | MIC [3]: 10 µM (≈ 16.3 µg/mL) | MIC [4]: 4 µM (≈ 6.53 µg/mL) | MIC [5]: 20 µM (≈ 32.7 µg/mL)

CC[C@H](C)[C@H](NC(=O)[C@H](CCCCN)NC(=O)[C@H](CCCN=C(N)N)NC(=O)[C@H](CC(C)C)NC(=O)[C@H](Cc1ccccc1)NC(=O)[C@H](CCCN=C(N)N)NC(=O)CNC(=O)[C@H](Cc1ccccc1)NC(=O)[C@H](CCCN=C(N)N)NC(=O)CNC(=O)[C@H](CCCN=C(N)N)NC(=O)[C@H](CCC(N)=O)NC(=O)[C@@H](NC(=O)[C@@H](N)CC(C)C)C(C)C)C(=O)N[C@@H](CCCN=C(N)N)C(=O)O [LVQRGRFGRFLRKIR]
MIC [6]: 5.66 µM and 16 µM | MIC [7]: 4 µM and 5.66 µM | MIC [8]: 5.66 µM and 11.3 µM | MIC [9]: 5.66 µM and 16 µM | MIC [10]: 8 µM and 16 µM | MIC [11]: 16 µM (≈ 30.4 µg/mL) | MIC [12]: 8 µM and 16 µM

CC(C)[C@H](NC(=O)[C@H](C)NC(=O)[C@H](CCCN=C(N)N)NC(=O)[C@H](CCCCN)NC(=O)[C@H](C)NC(=O)[C@H](Cc1ccccc1)NC(=O)[C@H](CCCN=C(N)N)NC(=O)[C@H](C)NC(=O)[C@H](Cc1ccccc1)NC(=O)[C@H](CCCN=C(N)N)NC(=O)[C@H](CCCCN)NC(=O)[C@@H](N)CCCN=C(N)N)C(N)=O [RKRFARFAKRAV]
MIC [13]: 26.6 µM (≈ 40 µg/mL) | MIC [14]: 13.3 µM (≈ 20 µg/mL) | MIC [15]: ≥ 66.4 µM | MIC [16]: ≥ 66.4 µM | MIC [17]: 26.6 µM (≈ 40 µg/mL) | MIC [18]: 26.6 µM (≈ 40 µg/mL) | MIC [19]: 26.6 µM (≈ 40 µg/mL) | MIC [20]: 26.6 µM (≈ 40 µg/mL) | MIC [21]: 3.32 µM (≈ 5 µg/mL)

CC[C@H](C)[C@H](NC(=O)[C@H](Cc1ccc(O)cc1)NC(=O)[C@@H](NC(=O)[C@@H]1CCCN1C(=O)[C@H](CCCN=C(N)N)NC(=O)[C@@H]1CCCN1C(=O)[C@H](CC(C)C)NC(=O)[C@@H](N)CCCN=C(N)N)C(C)C)C(=O)N1CCC[C@H]1C(=O)N[C@@H](CCC(N)=O)C(=O)N1CCC[C@H]1C(=O)N[C@@H](CCCN=C(N)N)C(=O)N1CCC[C@H]1C(=O)N1CCC[C@H]1C(=O)N[C@@H](Cc1cnc[nH]1)C(=O)N1CCC[C@H]1C(=O)N[C@@H](CCCN=C(N)N)C(=O)N[C@@H](CC(C)C)C(=O)O [RLPRPVYIPQPRPPHPRL]
MIC [22]: 12.5 µM (≈ 27.4 µg/mL) | MIC [23]: 25 µM (≈ 54.7 µg/mL) | MIC [24]: ≥ 50 µM | MIC [25]: 1.25 µM (≈ 2.74 µg/mL)

CC[C@H](C)[C@H](NC(=O)[C@H](Cc1ccc(O)cc1)NC(=O)[C@@H](NC(=O)[C@@H]1CCCN1C(=O)[C@H](CCCN=C(N)N)NC(=O)[C@@H](NC(=O)CNC(=O)[C@@H](N)CCCN=C(N)N)C(C)C)C(C)C)C(=O)N1CCC[C@H]1C(=O)N[C@@H](CCC(N)=O)C(=O)N1CCC[C@H]1C(=O)N[C@@H](CCCN=C(N)N)C(=O)N1CCC[C@H]1C(=O)N1CCC[C@H]1C(=O)N[C@@H](Cc1cnc[nH]1)C(=O)N1CCC[C@H]1C(=O)N[C@@H](CCCN=C(N)N)C(=O)N[C@@H](CC(C)C)C(=O)O [RGVRPVYIPQPRPPHPRL]
MIC [22]: 6.25 µM (≈ 13.3 µg/mL) | MIC [23]: 6.25 µM (≈ 13.3 µg/mL) | MIC [24]: 25 µM (≈ 53.4 µg/mL) | MIC [25]: 0.313 µM (≈ 0.668 µg/mL)

CC(C)C[C@H](NC(=O)[C@@H](NC(=O)[C@H](CCCCN)NC(=O)[C@@H](N)CCCCN)C(C)C)C(=O)N[C@@H](CCCCN)C(=O)N[C@@H](C)C(=O)N[C@@H](C)C(=O)N[C@@H](C)C(N)=O [KKVLKAAA]
MIC [26]: > 50 µM | MIC [10]: > 50 µM | MIC [27]: ≥ 50 µM | MIC [28]: ≥ 50 µM

CC[C@H](C)[C@H](NC(=O)[C@@H](NC(=O)[C@@H](NC(=O)[C@@H](NC(=O)[C@@H](NC(=O)[C@H](CCCCN)NC(=O)[C@@H]1CCCN1C(=O)[C@H](CCCN=C(N)N)NC(=O)[C@H](Cc1ccccc1)NC(=O)[C@H](CCCN=C(N)N)NC(=O)[C@@H](N)CCCN=C(N)N)C(C)C)[C@@H](C)O)[C@@H](C)CC)[C@@H](C)O)C(=O)N[C@@H](CCC(N)=O)C(=O)NCC(=O)N[C@@H](CO)C(=O)N[C@@H](C)C(=O)N[C@@H](CCCN=C(N)N)C(=O)N[C@@H](Cc1ccccc1)C(=O)O [RRFRPKVTITIQGSARF]
MIC [6]: 2 µM and 4 µM | MIC [7]: 4 µM (≈ 8.13 µg/mL) | MIC [8]: 2.83 µM and 4 µM | MIC [9]: 4 µM (≈ 8.13 µg/mL) | MIC [10]: 2.83 µM and 4 µM | MIC [11]: 5.66 µM and 8 µM | MIC [12]: 4 µM (≈ 8.13 µg/mL)

CC[C@H](C)[C@H](NC(=O)[C@H](CC(C)C)NC(=O)[C@H](CCCCN)NC(=O)[C@H](CCCN=C(N)N)NC(=O)[C@@H](N)CCCCN)C(=O)N[C@@H](Cc1ccccc1)C(=O)N[C@@H](CC(C)C)C(=O)N[C@@H](C)C(=O)N[C@@H](C)C(=O)N[C@@H](Cc1ccccc1)C(=O)N[C@@H](CC(C)C)C(=O)N[C@@H](C)C(=O)N[C@@H](C)C(=O)N[C@@H](CC(C)C)C(=O)N[C@@H](C)C(=O)N[C@@H](CC(C)C)C(=O)N[C@@H](Cc1ccccc1)C(=O)N[C@@H](CCCCN)C(=O)N[C@@H](CCCCN)C(=O)N[C@@H](CCCN=C(N)N)C(N)=O [KRKLIFLAAFLAALALFKKR]
MIC [13]: 17.2 µM (≈ 40 µg/mL) | MIC [14]: 1.08 µM (≈ 2.5 µg/mL) | MIC [15]: ≥ 43.1 µM | MIC [16]: ≥ 43.1 µM | MIC [17]: 17.2 µM (≈ 40 µg/mL) | MIC [18]: 17.2 µM (≈ 40 µg/mL) | MIC [19]: 17.2 µM (≈ 40 µg/mL) | MIC [20]: 8.62 µM (≈ 20 µg/mL) | MIC [21]: 17.2 µM (≈ 40 µg/mL)

CC[C@H](C)[C@H](NC(=O)[C@H](Cc1cnc[nH]1)NC(=O)[C@@H]1CCCN1C(=O)[C@@H](NC(=O)[C@H](CC(C)C)NC(=O)[C@H](CO)NC(=O)[C@H](CC(C)C)NC(=O)[C@@H](N)Cc1ccccc1)[C@@H](C)CC)C(=O)N[C@H](C(=O)N[C@@H](CO)C(=O)NCC(=O)N[C@H](C(=O)N[C@@H](C)C(=O)N[C@@H](C)C(=O)N[C@@H](CC(C)C)C(=O)N[C@@H](C)C(=O)N[C@@H](CCCCN)C(=O)N[C@@H](Cc1cnc[nH]1)C(=O)N[C@@H](CC(C)C)C(=O)NCC(=O)O)C(C)C)C(C)C [FLSLIPHIVSGVAALAKHLG]
MIC [29]: 3.1 µM (≈ 6.33 µg/mL) | MIC [30]: 12.5 µM (≈ 25.5 µg/mL)

CC[C@H](C)[C@H](NC(=O)[C@H](C)NC(=O)[C@@H]1CCCN1C(=O)[C@H](CCCN=C(N)N)NC(=O)[C@@H](N)CC(C)C)C(=O)N[C@@H](CC(C)C)C(=O)N[C@H](C(=O)N[C@@H](CCCN=C(N)N)C(=O)N[C@H](C(=O)N[C@@H](CCCCN)C(=O)NCC(=O)N[C@@H](CCCCN)C(=O)NCC(=O)N[C@@H](CC(C)C)C(N)=O)C(C)C)C(C)C [LRPAILVRVKGKGL]
MIC [31]: ≥ 42 µM
